From ChEMBL document CHEMBL4725284, “Junceellolide B, a novel inhibitor of Hepatitis B virus” (Bioorg Med Chem, 2020) come the findings set out here.

Data set [1] is described as follows: Cytotoxicity against human HePAD38 cells assessed as cell viability incubated for 72 hrs by MTT assay. The data set is classed as cell-based. Background: Tetrazolium dyes change colour on reduction, which living cells bring about.
A further data set deals with Hepatitis B virus. Put plainly: Antiviral activity against HBV infected in human HepAD38 cells assessed as inhibition of viral DNA at 10 uM incubated for 4 days by SYBR green dye based RT-PCR analysis relative to control. The format is functional. The note with it: HePAD38, 96 h, time 4 day.
Data set [2] in a line: Cytotoxicity against human HepG2 cells assessed as cell viability incubated for 72 hrs by MTT assay. The data set is classed as cell-based.

Molecules are shown by their SMILES.

By CC50 is commonly meant the concentration at which the toxic effect on the cells reaches its halfway point. What is called inhibition is the relative decrease from the control value, in per cent.

Take `C=C1CC[C@H](OC(C)=O)[C@]2(C)[C@@H](OC(C)=O)C[C@@H](OC(C)=O)/C(COC(C)=O)=C\[C@@H]3OC(=O)[C@H](C)[C@@]3(O)[C@@H](OC(C)=O)[C@@H]12`: the CC50 at 72 h in data set [1] and in data set [2] was > 100 µM in each case. Further, the inhibition at 10 µM in the data set on Hepatitis B virus amounted to 0%.

On to `C=C1CC[C@H](OC(C)=O)[C@@]2(C)[C@H]1[C@H](OC(C)=O)[C@@]13O[C@@H](C(=C)[C@H](Cl)[C@@H]1OC(=O)[C@@H]3C)[C@@H](OC(C)=O)[C@@H]2OC(C)=O`, for which the CC50 at 72 h in data set [1] and in data set [2] was > 100 µM in each case. The inhibition at 10 µM in the data set on Hepatitis B virus worked out at 27%.

On to `CC(=O)OCC(=O)O[C@H]1/C=C\C(COC(C)=O)=C/[C@@H]2OC(=O)[C@H](C)[C@@]2(O)[C@@H](OC(C)=O)[C@H]2[C@]3(CC[C@H](OC(C)=O)[C@]12C)CO3`, for which the CC50 at 72 h in data set [1] and in data set [2] was > 100 µM in each case. Also, the inhibition at 10 µM in the data set with Hepatitis B virus came out at 0%.

As for `C=C1C[C@H](OC(C)=O)[C@H](OC(C)=O)[C@@]2(C)[C@H]1[C@H](OC(C)=O)[C@@]13O[C@@H](C(=C)[C@H](Cl)[C@@H]1OC(=O)[C@@H]3C)[C@@H](O)[C@@H]2OC(C)=O`, the CC50 at 72 h in data set [1] and in data set [2] was > 100 µM throughout. Besides, the inhibition at 10 µM in the data set on Hepatitis B virus was 0%.

With `CC(=O)O[C@H]1CC[C@]2(CO2)[C@@H]2[C@H](OC(C)=O)[C@@]3(O)[C@H](/C=C(/C)[C@H](OC(C)=O)C[C@H](OC(C)=O)[C@@]12C)OC(=O)[C@@H]3C` [11ALPHA,20ALPHA-EPOXYJUNCEELLOLIDE], the CC50 at 72 h in data set [1] and in data set [2] was > 100 µM in each case. Also, in the data set on Hepatitis B virus, the inhibition at 10 µM came to 3%.

On to `C=C1[C@H](OC(C)=O)C[C@H](OC(=O)CC)[C@@]2(C)[C@@H](OC(C)=O)CC[C@]3(CO3)[C@@H]2[C@H](OC(C)=O)[C@]2(O)[C@@H](C)C(=O)O[C@H]2[C@H]1Cl`, for which the CC50 at 72 h in data set [1] and in data set [2] was > 100 µM throughout. The inhibition at 10 µM with Hepatitis B virus was found to be 0%.

For the molecule `C=C1/C=C/[C@H](OC(=O)CC)[C@@]2(C)[C@@H](OC(C)=O)[C@@H](OC(C)=O)C[C@]3(CO3)[C@@H]2[C@H](OC(C)=O)[C@]2(O)[C@@H](C)C(=O)O[C@H]2[C@H]1Cl`, the CC50 at 72 h in data set [1] and in data set [2] was > 100 µM throughout. For the same molecule, in the data set on Hepatitis B virus, the inhibition at 10 µM was 0%.

With `C=C1CC[C@H](OC(C)=O)[C@]2(C)[C@@H](OC(C)=O)C[C@@]3(O)O[C@@]4([C@H](C=C3CO)OC(=O)[C@@H]4C)[C@@H](OC(C)=O)[C@@H]12`, the CC50 at 72 h in data set [1] and in data set [2] was > 100 µM in each case. In the data set with Hepatitis B virus, the inhibition at 10 µM was found to be 0%.

With `CC(=O)O[C@H]1CC[C@]2(CO2)[C@@H]2[C@H](OC(C)=O)[C@@]3(O)[C@H](/C=C(CCl)\C=C/[C@H](OC(=O)COC(=O)CC(C)C)[C@@]12C)OC(=O)[C@@H]3C`, the CC50 at 72 h in data set [1] and in data set [2] was > 100 µM each time. In the data set on Hepatitis B virus, the inhibition at 10 µM amounted to 0%.

For the molecule `C=C1CC[C@H](OC(=O)CC(C)C)[C@]2(C)[C@@H](OC(C)=O)C[C@@H](OC(C)=O)/C(C)=C\[C@@H]3OC(=O)[C@H](C)[C@@]3(O)[C@@H](OC(C)=O)[C@@H]12`, the CC50 at 72 h in data set [1] and in data set [2] was > 100 µM throughout. Besides, in the data set on Hepatitis B virus, the inhibition at 10 µM stood at 0%.

Turning to `C=C1CC[C@H](OC(C)=O)[C@]2(C)[C@@H](OC(=O)COC(C)=O)/C=C\C(=C)[C@H](Cl)[C@@H]3OC(=O)[C@H](C)[C@@]3(O)[C@@H](OC(C)=O)[C@@H]12`, the CC50 at 72 h in data set [1] and in data set [2] was > 100 µM in each case. Also, the inhibition at 10 µM in the data set with Hepatitis B virus was determined as 6%.

Turning to `C=C1CC[C@H](OC(C)=O)[C@]2(C)[C@@H](OC(C)=O)C[C@@H](OC(C)=O)/C(CCl)=C\[C@@H]3OC(=O)[C@H](C)[C@@]3(O)[C@@H](OC(C)=O)[C@@H]12`, the half-maximal cytotoxic concentration (CC50) at 72 h in data set [1] and in data set [2] was > 100 µM throughout. Moreover, the inhibition at 10 µM with Hepatitis B virus turned out to be 0%.

For `C=C1[C@H](OC(C)=O)C[C@H](OC(C)=O)[C@@]2(C)[C@@H](OC(C)=O)CC[C@]3(CO3)[C@@H]2[C@H](OC(C)=O)[C@]2(O)[C@@H](C)C(=O)O[C@H]2[C@H]1Cl`, the CC50 at 72 h in data set [1] and in data set [2] was > 100 µM in each case. Also, the inhibition at 10 µM in the data set on Hepatitis B virus amounted to 39%.

As to `C=C1CC[C@H](OC(C)=O)[C@]2(C)[C@@H](OC(C)=O)C[C@@H](OC(C)=O)C(=C)[C@H](Cl)[C@@H]3OC(=O)[C@H](C)[C@@]3(O)[C@@H](OC(C)=O)[C@@H]12`, the CC50 at 72 h in data set [1] and in data set [2] was > 100 µM in each case. Further, the inhibition at 10 µM in the data set with Hepatitis B virus amounted to 63%.

With `Nc1ccn([C@@H]2CS[C@H](CO)O2)c(=O)n1` [LAMIVUDINE], the inhibition at 10 µM with Hepatitis B virus stood at 70%.

As to `CC(=O)OC/C1=C/[C@@H]2OC(=O)[C@H](C)[C@@]2(O)[C@@H](OC(C)=O)[C@H]2[C@]3(CC[C@H](OC(C)=O)[C@]2(C)[C@@H](OC(C)=O)C[C@H]1OC(C)=O)CO3`, the CC50 at 72 h in data set [1] and in data set [2] was > 100 µM throughout. Besides, the inhibition at 10 µM in the data set on Hepatitis B virus turned out to be 0%.

For `C=C1CC[C@H](OC(C)=O)[C@]2(C)[C@@H](OC(C)=O)/C=C/[C@]3(CO3)[C@H](Cl)[C@@H]3OC(=O)[C@H](C)[C@@]3(O)[C@@H](OC(C)=O)[C@@H]12`, the CC50 at 72 h in data set [1] and in data set [2] was > 100 µM in each case. Also, the inhibition at 10 µM in the data set with Hepatitis B virus stood at 0%.

Turning to `C=C1/C=C/[C@H](OC(C)=O)[C@@]2(C)[C@@H](OC(C)=O)C[C@H](OC(C)=O)[C@]3(CO3)[C@@H]2[C@H](OC(C)=O)[C@]2(O)[C@@H](C)C(=O)O[C@H]2[C@H]1Cl`, the cytotoxic concentration (CC50) at 72 h in data set [1] and in data set [2] was > 100 µM each time. Further, in the data set on Hepatitis B virus, the inhibition at 10 µM is 1%.

In the case of `C=C1[C@H](Cl)[C@@H]2OC(=O)[C@H](C)[C@]23O[C@@H]1[C@@H](O)[C@H](OC(C)=O)[C@@]1(C)[C@@H](OC(C)=O)CC[C@]2(CO2)[C@@H]1[C@@H]3OC(C)=O`, the CC50 at 72 h in data set [1] and in data set [2] was > 100 µM each time. In addition, the inhibition at 10 µM with Hepatitis B virus amounted to 0%.

Take `C=C1/C=C/[C@H](OC(C)=O)[C@@]2(C)[C@@H](OC(C)=O)[C@@H](OC(C)=O)C[C@]3(CO3)[C@@H]2[C@H](OC(C)=O)[C@]2(O)[C@@H](C)C(=O)O[C@H]2[C@H]1Cl` [FRAJUNOLIDE I]: the half-maximal cytotoxic concentration (CC50) at 72 h in data set [1] and in data set [2] was > 100 µM in each case. In addition, the inhibition at 10 µM in the data set with Hepatitis B virus is 41%.

`C=C1/C=C\[C@H](OC(=O)COC(C)=O)[C@@]2(C)[C@@H](OC(C)=O)CC[C@]3(CO3)[C@@H]2[C@H](OC(C)=O)[C@]2(O)[C@@H](C)C(=O)O[C@H]2[C@H]1Cl`: the CC50 at 72 h in data set [1] and in data set [2] was > 100 µM throughout. In the data set with Hepatitis B virus, the inhibition at 10 µM came to 0%.

`C=C1[C@@H](OC(C)=O)C[C@H](OC(C)=O)[C@]2(C)[C@@H](OC(C)=O)C[C@@H](OC(C)=O)/C(C)=C\[C@@H]3OC(=O)[C@H](C)[C@@]3(O)[C@@H](OC(C)=O)[C@@H]12`: the CC50 at 72 h in data set [1] and in data set [2] was > 100 µM in each case. Moreover, in the data set with Hepatitis B virus, the inhibition at 10 µM came to 0%.

Regarding `C=C1CC[C@H](OC(C)=O)[C@]2(C)[C@@H](OC(C)=O)C[C@@H](OC(C)=O)/C(C(=O)OC)=C\[C@@H]3OC(=O)[C@H](C)[C@@]3(O)[C@@H](OC(C)=O)[C@@H]12`, the CC50 at 72 h in data set [1] and in data set [2] was > 100 µM in each case. Besides, in the data set on Hepatitis B virus, the inhibition at 10 µM was found to be 1%.
